Drawing on ChEMBL document CHEMBL1151926, “Synthesis and SAR of C12-C13-oxazoline derivatives of epothilone A” (Bioorg Med Chem Lett, 2009), this text covers IC50 and Activity for 9 compounds.

What is called IC50 is the concentration at which inhibition is half-maximal.

Test [1] in a line: Antiproliferative activity against human KB-3-1 cells after 72 hrs. The test is classed as functional, cell-based. The following applies: KB 3-1, 72 h.
A further test deals with A549. The test can be described thus: Antiproliferative activity against human A549 cells after 72 hrs. The following applies: A549, 72 h. The test is classed as functional, cell-based.
The test system of test [2] is Tubulin (Sus scrofa). Nature of the test: Induction of porcine brain tubulin polymerization at 5 uM relative to 25 uM epothilone B.
Test [3] concerns Tubulin (Sus scrofa). Nature of the test: Induction of porcine brain tubulin polymerization at 2 uM relative to 25 uM epothilone B.
The test system of a further test is MCF7. The test can be described thus: Antiproliferative activity against human MCF7 cells after 72 hrs. The test is classed as functional, cell-based. The following applies: MCF7, 72 h.

The structures appear in SMILES notation.

Compound `COC1=N[C@H]2CCC[C@H](C)[C@H](O)[C@@H](C)C(=O)C(C)(C)[C@@H](O)CC(=O)O[C@H](/C(C)=C/c3csc(C)n3)C[C@@H]2O1` came in with a concentration for half-maximal inhibition (IC50) in test [1] above 1000 nM.
As to `C/C(=C\c1csc(C)n1)[C@@H]1CC2O[C@@H]2CCC[C@H](C)[C@H](O)[C@@H](C)C(=O)C(C)(C)[C@@H](O)CC(=O)O1` (single isomer, unassigned) [EPOTHILONE A], the IC50 in the test with A549 came to 2.2 nM; in the test with MCF7 it was 2.6 nM. The Activity came out at 89% in the test with Tubulin (Sus scrofa) [2] and 83% in the test with Tubulin (Sus scrofa) [3].
For `C/C(=C\c1csc(C)n1)[C@@H]1C[C@@H]2OC(c3cccnc3)=N[C@H]2CCC[C@H](C)[C@H](O)[C@@H](C)C(=O)C(C)(C)[C@@H](O)CC(=O)O1` the same measures were 0.92 nM, 1.3 nM, 93% and 78%.
For `C/C(=C\c1csc(C)n1)[C@@H]1C[C@@H]2OC(c3ccc(C)cc3)=N[C@H]2CCC[C@H](C)[C@H](O)[C@@H](C)C(=O)C(C)(C)[C@@H](O)CC(=O)O1` the same measures were 2.9 nM, 1.9 nM, 88% and 71%.
For the compound `C/C(=C\c1csc(C)n1)[C@@H]1C[C@@H]2OC(c3ccc(C(C)(C)C)cc3)=N[C@H]2CCC[C@H](C)[C@H](O)[C@@H](C)C(=O)C(C)(C)[C@@H](O)CC(=O)O1`, the 50% inhibitory concentration (IC50) in the test on A549 and in the test with MCF7 was above 10000 nM in each case. Further, the values for the Activity with Tubulin (Sus scrofa) [2] and in the test with Tubulin (Sus scrofa) [3] were 7% and 0%, respectively.
As for `C/C(=C\c1csc(C)n1)[C@@H]1C[C@@H]2OC(c3ccc(C(C)C)cc3)=N[C@H]2CCC[C@H](C)[C@H](O)[C@@H](C)C(=O)C(C)(C)[C@@H](O)CC(=O)O1`, the values for the IC50 with A549 and in the test on MCF7 were 4870 nM and 5140 nM, respectively. Besides, the Activity in the test with Tubulin (Sus scrofa) [2] was found to be 15%; with Tubulin (Sus scrofa) [3], 14%.
Taken in the same sequence, the figures for `CCc1ccc(C2=N[C@H]3CCC[C@H](C)[C@H](O)[C@@H](C)C(=O)C(C)(C)[C@@H](O)CC(=O)O[C@H](/C(C)=C/c4csc(C)n4)C[C@@H]3O2)cc1` were 378 nM, 297 nM, 36% and 32%.
On to `CC1=N[C@H]2CCC[C@H](C)[C@H](O)[C@@H](C)C(=O)C(C)(C)[C@@H](O)CC(=O)O[C@H](/C(C)=C/c3csc(C)n3)C[C@@H]2O1`, for which, in test [1], the concentration for half-maximal inhibition (IC50) is above 1000 nM.
With `C/C(=C\c1csc(C)n1)[C@@H]1C[C@@H]2OC(c3ccccc3)=N[C@H]2CCC[C@H](C)[C@H](O)[C@@H](C)C(=O)C(C)(C)[C@@H](O)CC(=O)O1`, the figures for the half-maximal inhibitory concentration (IC50) in the test with A549 and with MCF7 were 16.4 nM and 19.2 nM, respectively. Besides, the Activity with Tubulin (Sus scrofa) [2] amounted to 80%; in the test on Tubulin (Sus scrofa) [3] it was 65%.
